Assay results from patent US20230212122A1, “MITOCHONDRIAL TARGETING COMPOUNDS FOR THE TREATMENT OF ASSOCIATED DISEASES” (The Regents of the University of Michigan, priority 2020, published 2023).

Tested on: UM16 cell line
Assay: Nascent RNA sequencing (Bru-seq), gene fold change
Format: cell-based
Conditions: 5 μM, 4 hours
Description: Consistent with this observation, there are also massive metabolite pathways influenced including starch and sucrose metabolism, glycolysis and gluconeogenesis, purine metabolism, pyrimidine metabolism, N-glycan biosynthesis, etc.

CCOC(=O)[C@@H]1CCCN(S(=O)(=O)c2ccc(S(=O)(=O)N(CC)CC)cc2)C1 [DX2-201, ethyl (R)-1-((4-(N,N-diethylsulfamoyl)phenyl)sulfonyl)piperidine-3-carboxylate]
Fold change AC008521.2 (non-coding RNA, downregulated): 0.1876 | Fold change AC019257.2 (non-coding RNA, downregulated): 0.2345 | Fold change AC091133.4 (non-coding RNA, downregulated): 0.2345 | Fold change AC092916.2 (non-coding RNA, downregulated): 0.1706 | Fold change AC106037.1 (non-coding RNA, downregulated): 0.2345 | Fold change AL096870.2 (non-coding RNA, downregulated): 0.02465 | Fold change BX679664.2 (non-coding RNA, downregulated): 0.1876 | Fold change C1orf50 (non-coding RNA, downregulated): 0.1876 | Fold change MIR545 (non-coding RNA, downregulated): 0.1876 | Fold change MIR5000 (non-coding RNA, downregulated): 0.05752 | Fold change RN7SL128P (non-coding RNA, downregulated): 0.1876 | Fold change RN7SL388P (non-coding RNA, downregulated): 0.2085 | Fold change RN7SL589P (non-coding RNA, downregulated): 0.2165 | Fold change RN7SL833P (non-coding RNA, downregulated): 0.2345 | Fold change RNU1-19P (non-coding RNA, downregulated): 0.1564 | Fold change RNU1-73P (non-coding RNA, downregulated): 0.09381 | Fold change RNU6-122P (non-coding RNA, downregulated): 0.04314 | Fold change RNU6-398P (non-coding RNA, downregulated): 0.03451 | Fold change RNU6-519P (non-coding RNA, downregulated): 0.1564 | Fold change RNU6-548P (non-coding RNA, downregulated): 0.05752 | Fold change SNORA73 (non-coding RNA, downregulated): 0.2345 | Fold change TERC (non-coding RNA, downregulated): 0.04314 | Fold change Y_RNA (non-coding RNA, downregulated): 0.02876 | Fold change Z99127.3 (non-coding RNA, downregulated): 0.1876 | Fold change ZBTB40-IT1 (non-coding RNA, downregulated): 0.2345 | Fold change AC007686.1 (non-coding RNA, upregulated): 2.01 | Fold change AC007952.4 (non-coding RNA, upregulated): 2.345 | Fold change AC008687.3 (non-coding RNA, upregulated): 2.033 | Fold change AC034198.2 (non-coding RNA, upregulated): 2.345 | Fold change AC105020.4 (non-coding RNA, upregulated): 1.782 | Fold change AC139887.1 (non-coding RNA, upregulated): 2.064 | Fold change AL136982.3 (non-coding RNA, upregulated): 2.217 | Fold change AL161729.3 (non-coding RNA, upregulated): 1.993 | Fold change AL627171.1 (non-coding RNA, upregulated): 1.841 | Fold change AL645939.5 (non-coding RNA, upregulated): 1.876 | Fold change AP001527.2 (non-coding RNA, upregulated): 2.217 | Fold change AP001619.1 (non-coding RNA, upregulated): 1.62 | Fold change AP003168.2 (non-coding RNA, upregulated): 1.689 | Fold change DPRXP4 (non-coding RNA, upregulated): 3.19 | Fold change EIF5AP3 (non-coding RNA, upregulated): 1.876 | Fold change HMGN1P15 (non-coding RNA, upregulated): 2.111 | Fold change RNA5SP379 (non-coding RNA, upregulated): 2.814 | Fold change RNU6-182P (non-coding RNA, upregulated): 20.4 | Fold change RNU6-396P (non-coding RNA, upregulated): 1.876 | Fold change RNU6-531P (non-coding RNA, upregulated): 2.814 | Fold change RNU6-564P (non-coding RNA, upregulated): 2.814 | Fold change RNU6-1272P (non-coding RNA, upregulated): 25.5 | Fold change RNY3P2 (non-coding RNA, upregulated): 1.876 | Fold change SNORD124 (non-coding RNA, upregulated): 1.876 | Fold change Y_RNA (non-coding RNA, upregulated): 15.3 | Fold change A2ML1 (protein-coding, downregulated): 0.582 | Fold change ARRDC4 (protein-coding, downregulated): 0.4315 | Fold change BDKRB2 (protein-coding, downregulated): 0.6044 | Fold change DGAT2 (protein-coding, downregulated): 0.5129 | Fold change DPAGT1 (protein-coding, downregulated): 0.6034 | Fold change FAM86C1 (protein-coding, downregulated): 0.6053 | Fold change FAM86HP (protein-coding, downregulated): 0.5946 | Fold change FAM200A (protein-coding, downregulated): 0.5595 | Fold change FOXA2 (protein-coding, downregulated): 0.6075 | Fold change G0S2 (protein-coding, downregulated): 0.4666 | Fold change GGCT (protein-coding, downregulated): 0.6012 | Fold change HLF (protein-coding, downregulated): 0.4727 | Fold change INTS5 (protein-coding, downregulated): 0.4515 | Fold change L3HYPDH (protein-coding, downregulated): 0.6301 | Fold change PCED1A (protein-coding, downregulated): 0.576 | Fold change PLLP (protein-coding, downregulated): 0.5843 | Fold change POLR2J4 (protein-coding, downregulated): 0.4775 | Fold change RRS1 (protein-coding, downregulated): 0.5686 | Fold change SCARNA5 (protein-coding, downregulated): 0.4376 | Fold change SLC5A6 (protein-coding, downregulated): 0.6234 | Fold change SNHG21 (protein-coding, downregulated): 0.5497 | Fold change SNORA62 (protein-coding, downregulated): 0.5968 | Fold change SNORA71C (protein-coding, downregulated): 0.6023 | Fold change TMED1 (protein-coding, downregulated): 0.6232 | Fold change TXNIP (protein-coding, downregulated): 0.4997 | Fold change ANKRD37 (protein-coding, upregulated): 2.182 | Fold change ARG2 (protein-coding, upregulated): 2.569 | Fold change ARHGAP30 (protein-coding, upregulated): 1.728 | Fold change ARRDC3 (protein-coding, upregulated): 1.707 | Fold change BNIP3L (protein-coding, upregulated): 1.723 | Fold change CCNG2 (protein-coding, upregulated): 1.668 | Fold change CREBRF (protein-coding, upregulated): 1.676 | Fold change ERRFI1 (protein-coding, upregulated): 1.77 | Fold change FOXO6 (protein-coding, upregulated): 1.954 | Fold change HDAC5 (protein-coding, upregulated): 1.811 | Fold change KLHL24 (protein-coding, upregulated): 2.336 | Fold change LOXL4 (protein-coding, upregulated): 1.73 | Fold change MXD4 (protein-coding, upregulated): 1.812 | Fold change MXI1 (protein-coding, upregulated): 1.785 | Fold change NDRG1 (protein-coding, upregulated): 2.874 | Fold change PDK1 (protein-coding, upregulated): 1.779 | Fold change PPP1R3C (protein-coding, upregulated): 1.699 | Fold change PRDM1 (protein-coding, upregulated): 1.748 | Fold change RNF122 (protein-coding, upregulated): 1.915 | Fold change SEMA3B (protein-coding, upregulated): 1.668 | Fold change SOX12 (protein-coding, upregulated): 1.903 | Fold change UPRT (protein-coding, upregulated): 1.74 | Fold change VLDLR (protein-coding, upregulated): 1.741 | Fold change YPEL1 (protein-coding, upregulated): 1.706 | Fold change ZNF546 (protein-coding, upregulated): 1.757
